Reference: patent publication US20230203041A1, “ANTAGONISTS OF THE ADENOSINE A2A RECEPTOR” (AdoRx Therapeutics Limited, priority 2020, published 2023)
Where a name gives a salt, the structure may show the parent alone.

Experiments:
[1] = biological target: T1, human Adenosine A1 receptor (Homo sapiens, UniProt P30542); assay: Adenosine receptor TR-FRET binding assay (CA200645 displacement), A1
T1 sequence (P30542 1-326): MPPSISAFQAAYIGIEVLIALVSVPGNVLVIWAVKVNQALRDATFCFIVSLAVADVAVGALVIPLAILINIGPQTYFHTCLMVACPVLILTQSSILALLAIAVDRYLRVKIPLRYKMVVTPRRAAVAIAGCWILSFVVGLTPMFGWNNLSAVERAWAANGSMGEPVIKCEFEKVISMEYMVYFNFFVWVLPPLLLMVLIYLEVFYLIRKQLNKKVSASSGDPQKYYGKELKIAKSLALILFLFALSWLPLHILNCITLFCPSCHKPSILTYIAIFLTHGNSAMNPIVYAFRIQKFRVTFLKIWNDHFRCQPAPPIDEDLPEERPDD

[2] = biological target: T2, human Adenosine A3 receptor (Homo sapiens, UniProt P0DMS8); assay: Adenosine receptor TR-FRET binding assay (CA200645 displacement), A3
T2 sequence (P0DMS8 1-318): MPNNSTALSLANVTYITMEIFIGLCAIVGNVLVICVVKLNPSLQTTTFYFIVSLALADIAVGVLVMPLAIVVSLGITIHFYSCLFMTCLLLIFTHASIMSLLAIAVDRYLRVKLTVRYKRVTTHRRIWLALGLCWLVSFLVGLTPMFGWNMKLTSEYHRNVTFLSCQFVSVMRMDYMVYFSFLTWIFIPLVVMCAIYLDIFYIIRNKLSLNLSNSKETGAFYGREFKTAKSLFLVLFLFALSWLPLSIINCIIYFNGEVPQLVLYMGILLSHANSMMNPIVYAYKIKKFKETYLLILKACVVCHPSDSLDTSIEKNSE
Method: (§1) All FRET binding experiments were conducted at room temperature in white 384-well plates, in assay binding buffer containing 1×LabMed (Cisbio, France), 100 μg/mL saponin, 1% DMSO and 0.02% pluronic acid. Binding of the fluorescently labelled Adenosine receptor antagonist XAC (CA200645, FRET acceptor) to terbium-labelled A1, A2a, A2b and A3 adenosine receptors (FRET donors) was detected by time-resolved FRET due to the close proximity of the donor and acceptor in a binding event. To investigate the ability of unlabelled test compounds to bind to Adenosine A1, A2a, A2b and A3 receptors, dose response curves were constructed that determined the ability of a range of concentrations to inhibit the binding of 30 nM CA200645 to the A2b receptor and 100 nM CA200645 to the A1, A2a, and A3 receptor.
(§2) Serial dilution (1:3 dilutions) of test compounds in neat DMSO and transfer of a 400 nL sample of test compound into the assay plate was carried out using the Mosquito (TTP Labtech, UK). The compound samples were incubated for 2 hours at room temperature with a fixed concentration of CA200645 defined for each receptor (see above) and CHO cell membranes containing the human Adenosine A1 (0.5 μg/well), A2a (0.3 μg/well), A2b (1 μg/well) or A3 (1 μg/well) receptor in 40 μL of assay buffer. Total and non-specific binding of CA200645 was determined in the absence and presence of 10 μM XAC, respectively. Following 2 hours incubation, the level of CA200645 binding was detected on a Pherastar FSX (BMG Labtech, Germany) using standard TR-FRET settings. The terbium donor was excited with three laser flashes at a wavelength of 337 nm, and donor and acceptor emission was detected at 620 nm and 665 nm wavelengths, respectively. FRET ratios were obtained by multiplying the acceptor/donor ratio value by 10,000. Specific binding was determined by subtracting the non-specific binding FRET ratio from the total binding FRET ratio. Compound IC50 curves were analysed using GraphPad Prism 7.0 (GraphPad, USA) and Ki affinity values were determined from the obtained IC50 values using the method of Cheng and Prusoff.

[3] = biological target: T3, human Adenosine A2b receptor (Homo sapiens, UniProt P29275); assay: Adenosine receptor TR-FRET binding assay (CA200645 displacement), A2b; settings: 30 nM CA200645, CHO cell membranes, 2 hours at room temperature
T3 construct: expressed in transfected cells; host or cells: CHO cell membranes
T3 sequence (P29275 1-332): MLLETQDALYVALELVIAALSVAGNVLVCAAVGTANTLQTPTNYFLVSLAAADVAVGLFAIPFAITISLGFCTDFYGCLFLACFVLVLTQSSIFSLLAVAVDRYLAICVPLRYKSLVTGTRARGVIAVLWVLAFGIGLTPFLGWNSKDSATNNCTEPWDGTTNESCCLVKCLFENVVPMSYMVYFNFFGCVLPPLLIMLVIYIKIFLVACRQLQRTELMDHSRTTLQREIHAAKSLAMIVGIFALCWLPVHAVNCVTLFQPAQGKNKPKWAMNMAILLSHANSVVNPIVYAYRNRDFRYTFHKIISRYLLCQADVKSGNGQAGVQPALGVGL
Method: as §1, §2

[4] = biological target: T4, human Adenosine A2a receptor (Homo sapiens, UniProt P29274); assay: Adenosine receptor TR-FRET binding assay (CA200645 displacement), A2a; settings: 100 nM CA200645, CHO cell membranes, 2 hours at room temperature
T4 construct: expressed in transfected cells; host or cells: CHO cell membranes
T4 sequence (P29274 whole entry): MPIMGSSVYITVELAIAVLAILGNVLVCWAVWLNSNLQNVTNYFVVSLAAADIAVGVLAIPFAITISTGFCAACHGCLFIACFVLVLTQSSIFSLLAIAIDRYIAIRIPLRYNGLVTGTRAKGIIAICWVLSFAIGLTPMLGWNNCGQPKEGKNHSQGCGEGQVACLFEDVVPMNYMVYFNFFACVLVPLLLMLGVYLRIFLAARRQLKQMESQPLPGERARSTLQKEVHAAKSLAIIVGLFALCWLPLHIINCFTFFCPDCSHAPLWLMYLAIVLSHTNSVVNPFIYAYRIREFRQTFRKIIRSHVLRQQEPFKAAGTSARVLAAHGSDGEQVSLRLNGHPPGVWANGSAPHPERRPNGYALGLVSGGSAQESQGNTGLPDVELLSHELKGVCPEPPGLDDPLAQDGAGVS

Compound	Ki [1]	Ki [2]	Ki [3]	Ki [4]
N#Cc1c(-c2ccco2)nn2ccc(NC[C@H]3CCCN3)nc12 [Example 80, 2-(2-furyl)-5-[[(2R)-pyrrolidin-2-yl]methylamino]pyrazolo[1,5-a]pyrimidine-3-carbonitrile hydrochloride]	988 nM	> 1000 nM	4460 nM	155 nM
Cc1cc(-c2c(-c3cccc(C#N)c3)nn3ccc(C(=O)NCC(C)(C)N)nc23)cc(Cl)n1 [Example 6.1, N-(2-Amino-2-methyl-propyl)-3-(2-chloro-6-methyl-4-pyridyl)-2-(3-cyanophenyl)pyrazolo[1,5-a]pyrimidine-5-carboxamide]	664 nM	> 1000 nM	53 nM	11.7 nM
CO[C@H]1CN(C)C[C@@H]1Nc1ccn2nc(-c3cccc(C#N)c3)c(-c3cc(C)nc(Cl)c3)c2n1 [Example 2.5]	24 nM	> 1000 nM	1 nM	0.9 nM
Cc1cc(-c2c(-c3cccc(C#N)c3)nn3ccc(C(=O)NCC4(O)CCNC4)nc23)cc(Cl)n1 (stereo not shown) [Example 7.6, 3-(2-Chloro-6-methyl-4-pyridyl)-2-(3-cyanophenyl)-N-[(3-hydroxypyrrolidin-3-yl)methyl]pyrazolo[1,5-a]pyrimidine-5-carboxamide]	672 nM	> 1000 nM	13 nM	6.8 nM
CC(=O)Nc1cc(-c2c(-c3cccc(C#N)c3)nn3ccc(N)nc23)cc(C)n1 [Example 27.4, N-[4-[5-Amino-2-(3-cyanophenyl)pyrazolo[1,5-a]pyrimidin-3-yl]-6-methyl-2-pyridyl]acetamide]	583 nM	> 1000 nM	519 nM	54.1 nM
Cc1cc(-c2c(-c3cccc(C#N)c3)nn3ccc(CCC(C)(C)O)nc23)cc(Cl)n1 [Example 22, 3-[3-(2-Chloro-6-methyl-4-pyridyl)-5-(3-hydroxy-3-methyl-butyl)pyrazolo[1,5-a]pyrimidin-2-yl]benzonitrile]	141 nM	> 1000 nM	34 nM	1 nM
Cc1cc(-c2c(-c3cccc(C#N)c3)nn3ccc(NC4CCN(C)CC4)nc23)cc(Cl)n1 [Example 2.42]	149 nM	> 1000 nM	4 nM	0.5 nM
N#Cc1c(-c2ncco2)nn2ccc(NCc3ccccc3)nc12 [Example 57, 5-(Benzylamino)-2-oxazol-2-yl-pyrazolo[1,5-a]pyrimidine-3-carbonitrile]	236 nM	1870 nM	1490 nM	24.7 nM
Cc1cc(-c2c(-c3cccc(C#N)c3)nn3ccc(N4CCC4C(=O)O)nc23)cc(Cl)n1 (stereo not shown) [Example 2.34]	234 nM	> 1000 nM	163 nM	22.5 nM
Cc1cc(-c2c(-c3cccc(C#N)c3)nn3ccc(C(=O)NCC4(O)COC4)nc23)cc(Cl)n1 [Example 6.7, 3-(2-Chloro-6-methyl-4-pyridyl)-2-(3-cyanophenyl)-N-[(3-hydroxyoxetan-3-yl)methyl]pyrazolo[1,5-a]pyrimidine-5-carboxamide]	174 nM	> 1000 nM	5 nM	1.4 nM
Cc1cc(-c2c(-c3cccc(C#N)c3)nn3ccc(CN4CCOCC4)nc23)cc(Cl)n1 [Example 20, 3-[3-(2-Chloro-6-methyl-4-pyridyl)-5-(morpholinomethyl)pyrazolo[1,5-a]pyrimidin-2-yl]benzonitrile]	573 nM	> 1000 nM	22 nM	11.6 nM
Cc1cc(-c2c(-c3cccc(C#N)c3)nn3ccc(C(=O)NCC4(O)CCC4)nc23)cc(Cl)n1 [Example 6.3, 3-(2-Chloro-6-methyl-4-pyridyl)-2-(3-cyanophenyl)-N-[(1-hydroxycyclobutyl)methyl]pyrazolo[1,5-a]pyrimidine-5-carboxamide]	127 nM	> 1000 nM	3 nM	0.3 nM
Cn1cc(-c2c(-c3cccc(C#N)c3)nn3ccc(N)nc23)cn1 [Example 26.5, 3-[5-Amino-3-(1-methylpyrazol-4-yl)pyrazolo[1,5-a]pyrimidin-2-yl]benzonitrile]	89 nM	749 nM	1200 nM	105 nM
Cc1cc(-c2c(-c3cccc(C#N)c3)nn3ccc(N)nc23)cnc1N [Example 26, 3-[5-Amino-3-(6-amino-5-methyl-3-pyridyl)pyrazolo[1,5-a]pyrimidin-2-yl]benzonitrile]	6 nM	2430 nM	409 nM	147 nM
Cc1cc(-c2c(-c3cccc(C#N)c3)nn3ccc(C(=O)NC4CN(C)C4)nc23)cc(Cl)n1 [Example 6.16, 3-(2-Chloro-6-methyl-4-pyridyl)-2-(3-cyanophenyl)-N-(1-methylazetidin-3-yl)pyrazolo[1,5-a]pyrimidine-5-carboxamide]	346 nM	> 1000 nM	54 nM	5.9 nM
Cc1cc(-c2c(-c3cccc(C#N)c3)nn3ccc(NC4CCN(CCO)CC4)nc23)cc(Cl)n1 [Example 2.39]	241 nM	> 1000 nM	2 nM	1.4 nM
Cc1cc(-c2c(-c3cccc(C#N)c3)nn3ccc(N[C@H]4CCCNC4)nc23)cc(Cl)n1 [Example 4.7]	213 nM	> 1000 nM	6 nM	13.9 nM

Now from value to molecule:

Ki [1]	Ki [2]	Ki [3]	Ki [4]	Compound
319 nM	923 nM	1320 nM	310 nM	N#Cc1c(-c2ccco2)nn2ccc(NCCN3CCN(Cc4ccccc4)CC3)nc12 [Example 37.12]
355 nM	8460 nM	1740 nM	103 nM	N#Cc1c(-c2ccco2)nn2ccc(NCCCO)nc12 [Example 55.1, 2-(2-Furyl)-5-(3-hydroxypropylamino)pyrazolo[1,5-a]pyrimidine-3-carbonitrile]
232 nM	> 1000 nM	59 nM	0.7 nM	Cc1cc(-c2c(-c3cccc(C#N)c3)nn3ccc(C(=O)NCC4(C)CCC(=O)N4)nc23)cc(C)n1 (stereo not shown) [Example 92.16]
1120 nM	> 1000 nM	35 nM	3.4 nM	Cc1cc(-c2c(-c3cccc(C#N)c3)nn3ccc(C(=O)N[C@H]4CC[C@@](C)(O)CC4)nc23)cc(C)n1 [Example 92.23]
412 nM	> 1000 nM	34 nM	1.9 nM	Cc1cc(-c2c(-c3cccc(C#N)c3)nn3ccc(C(=O)N[C@H]4COC[C@@H]4O)nc23)cc(C)n1 [Example 92.29]
1800 nM	> 1000 nM	416 nM	440 nM	CCn1nccc1-c1c(-c2cccc(C#N)c2)nn2ccc(N3CCS(=N)(=O)CC3)nc12 [Example 33.7]
345 nM	> 1000 nM	64 nM	3.2 nM	Cc1cc(-c2c(-c3cccc(C#N)c3)nn3ccc(C(=O)NC[C@@H]4CNC(=O)C4)nc23)cc(C)n1 [Example 92.28]
680 nM	> 1000 nM	4450 nM	410 nM	N#Cc1c(-c2ccco2)nn2ccc(NC[C@H]3CNCCO3)nc12 [Example 42.1, 2-(2-Furyl)-5-[[(2R)-morpholin-2-yl]methylamino]pyrazolo[1,5-a]pyrimidine-3-carbonitrile hydrochloride]
151 nM	> 1000 nM	5 nM	4.6 nM	Cc1cc(-c2c(-c3cccc(C#N)c3)nn3ccc(NC(=O)N[C@@H]4CCNC4)nc23)cc(Cl)n1 [Example 31.3, 1-[3-(2-Chloro-6-methyl-4-pyridyl)-2-(3-cyanophenyl)pyrazolo[1,5-a]pyrimidin-5-yl]-3-[(3R)-pyrrolidin-3-yl]urea trifluoroacetate]
361 nM	> 1000 nM	36 nM	0.8 nM	Cc1cc(-c2c(-c3cccc(C#N)c3)nn3ccc(C(=O)N[C@@H]4COC[C@@H]4O)nc23)cc(C)n1 [Example 92.30]
184 nM	> 1000 nM	62 nM	14.9 nM	CCn1nccc1-c1c(-c2cccc(C#N)c2)nn2ccc(N3CCN(C)C(CO)C3)nc12 (stereo not shown) [Example 33.1]
